Experimental data reported in publication PMC7957392, “Yeast translation elongation factor eEF3 promotes late stages of tRNA translocation” (The EMBO Journal, 2021).

Molecular target: T1, eEF3 (C‐terminally TAP‐tagged, in native eEF3‐80S complex) (Saccharomyces cerevisiae, UniProt P16521)
T1 construct: gene YEF3; final 68 C-terminal residues including tag not modelled
T1 sequence (P16521 2-1044): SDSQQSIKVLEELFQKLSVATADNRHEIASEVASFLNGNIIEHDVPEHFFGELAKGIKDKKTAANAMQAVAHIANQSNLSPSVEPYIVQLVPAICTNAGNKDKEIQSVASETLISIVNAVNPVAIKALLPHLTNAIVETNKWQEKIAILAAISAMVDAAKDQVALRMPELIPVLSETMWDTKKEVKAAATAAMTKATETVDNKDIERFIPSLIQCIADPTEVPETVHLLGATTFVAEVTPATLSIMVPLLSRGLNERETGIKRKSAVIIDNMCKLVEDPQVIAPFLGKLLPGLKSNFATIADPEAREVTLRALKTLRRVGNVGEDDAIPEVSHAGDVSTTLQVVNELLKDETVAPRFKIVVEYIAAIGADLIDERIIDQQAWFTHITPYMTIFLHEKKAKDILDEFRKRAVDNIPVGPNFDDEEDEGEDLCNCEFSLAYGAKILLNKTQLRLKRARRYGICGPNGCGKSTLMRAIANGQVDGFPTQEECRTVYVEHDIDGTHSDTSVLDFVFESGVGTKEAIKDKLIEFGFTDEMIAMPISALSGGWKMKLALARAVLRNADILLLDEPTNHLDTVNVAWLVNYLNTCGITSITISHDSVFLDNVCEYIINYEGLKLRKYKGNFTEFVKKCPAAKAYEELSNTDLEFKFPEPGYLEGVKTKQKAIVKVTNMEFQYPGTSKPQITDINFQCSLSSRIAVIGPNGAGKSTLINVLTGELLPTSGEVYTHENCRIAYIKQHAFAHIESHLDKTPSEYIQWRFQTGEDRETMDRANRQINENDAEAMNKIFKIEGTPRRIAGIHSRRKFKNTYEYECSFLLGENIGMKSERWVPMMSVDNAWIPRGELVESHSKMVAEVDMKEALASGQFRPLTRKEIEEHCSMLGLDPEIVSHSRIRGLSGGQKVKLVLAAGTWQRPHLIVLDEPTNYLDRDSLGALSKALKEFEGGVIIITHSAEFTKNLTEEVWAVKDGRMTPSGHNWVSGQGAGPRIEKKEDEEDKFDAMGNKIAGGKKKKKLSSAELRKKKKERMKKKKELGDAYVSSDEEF
Assay: cryo-EM structure of native eEF3-80S complex ([…] Å)
Conditions: ABC1 and ABC2 nucleotide-binding sites; complex eluted with 1 mM ADPNP, pH 7.4, 10 mM Mg(OAc)2; density assigned by authors as ATP (or ADPNP), identity not resolved

## Nc1ncnc2c1ncn2[C@@H]1O[C@H](COP(=O)(O)OP(=O)(O)NP(=O)(O)O)[C@@H](O)[C@H]1O [ADPNP]
  cryo-EM structure of native eEF3-80S complex (3.3 Å): electron density consistent with ATP (or ADPNP) was observed in the active sites of ABC1
